According to PMC10092844, “Inhibition profile of trifludimoxazin towards PPO2 target site mutations” (Pest Management Science, 2022):
Where a chain is given by its changes, count along the chain named. Read-outs that look alike come from different tables or passages of the source.

Key:
[1] = target: T1, PPO2 R128T ΔG210 in Escherichia coli hemG (Amaranthus tuberculatus, UniProt Q0NZW9, DEL210-210/R128T, cells depend on it); format: cell-based; conditions: read-out: IC50 (E. coli hemG growth)
T1 sequence (Q0NZW9 with tags, fused parts or gaps R128T/DEL210-210): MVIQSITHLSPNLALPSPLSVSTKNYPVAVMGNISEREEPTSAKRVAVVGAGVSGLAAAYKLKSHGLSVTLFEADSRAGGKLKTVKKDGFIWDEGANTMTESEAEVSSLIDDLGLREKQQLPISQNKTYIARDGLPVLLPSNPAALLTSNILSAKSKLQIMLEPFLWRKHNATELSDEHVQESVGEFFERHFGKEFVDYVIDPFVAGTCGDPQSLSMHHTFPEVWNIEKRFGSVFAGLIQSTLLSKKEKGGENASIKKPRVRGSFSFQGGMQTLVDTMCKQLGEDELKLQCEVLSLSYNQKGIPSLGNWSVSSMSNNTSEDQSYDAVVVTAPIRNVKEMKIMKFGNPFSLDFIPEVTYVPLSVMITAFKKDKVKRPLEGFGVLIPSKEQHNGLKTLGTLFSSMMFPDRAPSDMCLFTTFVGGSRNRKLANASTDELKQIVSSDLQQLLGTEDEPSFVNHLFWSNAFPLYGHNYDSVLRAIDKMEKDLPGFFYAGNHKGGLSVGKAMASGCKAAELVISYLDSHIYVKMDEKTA

[2] = target: T2, PPO2 R128L ΔG210 in Escherichia coli hemG (Amaranthus tuberculatus, UniProt Q0NZW9, DEL210-210/R128L, cells depend on it); format: cell-based; conditions: read-out: IC50 (E. coli hemG growth)
T2 sequence (Q0NZW9 with tags, fused parts or gaps R128L/DEL210-210): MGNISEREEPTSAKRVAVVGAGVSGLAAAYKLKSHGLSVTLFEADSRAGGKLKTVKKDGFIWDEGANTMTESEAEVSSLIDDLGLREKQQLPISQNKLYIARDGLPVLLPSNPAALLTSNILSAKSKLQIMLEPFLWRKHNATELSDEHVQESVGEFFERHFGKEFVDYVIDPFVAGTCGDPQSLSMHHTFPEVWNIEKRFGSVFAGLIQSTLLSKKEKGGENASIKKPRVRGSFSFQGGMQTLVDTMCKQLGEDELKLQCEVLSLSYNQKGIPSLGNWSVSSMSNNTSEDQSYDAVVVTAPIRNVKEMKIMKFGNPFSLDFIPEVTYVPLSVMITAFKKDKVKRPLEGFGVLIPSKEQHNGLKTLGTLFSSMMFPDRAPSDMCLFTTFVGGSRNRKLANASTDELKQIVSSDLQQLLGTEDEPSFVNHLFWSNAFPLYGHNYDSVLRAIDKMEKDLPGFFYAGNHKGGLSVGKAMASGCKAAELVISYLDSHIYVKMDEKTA

[3] = target: T3, PPO2 R128M ΔG210 in Escherichia coli hemG (Amaranthus tuberculatus, UniProt Q0NZW9, DEL210-210/R128M, cells depend on it); format: cell-based; conditions: read-out: IC50 (E. coli hemG growth)
T3 sequence (Q0NZW9 with tags, fused parts or gaps R128M/DEL210-210): T2 sequence (Q0NZW9 with tags, fused parts or gaps R128L/DEL210-210) with L98M

[4] = target: T4, PPO2 R128C ΔG210 (Amaranthus tuberculatus, UniProt Q0NZW9, DEL210/R128C); assay: biochemical; format: biochemical
T4 sequence (Q0NZW9 with tags, fused parts or gaps R128C/DEL210): T2 sequence (Q0NZW9 with tags, fused parts or gaps R128L/DEL210-210) with L98C

[5] = target: T5, PPO2 G399A (Amaranthus tuberculatus, UniProt Q0NZW9, G398A); assay: biochemical; format: biochemical
T5 sequence (Q0NZW9 31-534 G398A): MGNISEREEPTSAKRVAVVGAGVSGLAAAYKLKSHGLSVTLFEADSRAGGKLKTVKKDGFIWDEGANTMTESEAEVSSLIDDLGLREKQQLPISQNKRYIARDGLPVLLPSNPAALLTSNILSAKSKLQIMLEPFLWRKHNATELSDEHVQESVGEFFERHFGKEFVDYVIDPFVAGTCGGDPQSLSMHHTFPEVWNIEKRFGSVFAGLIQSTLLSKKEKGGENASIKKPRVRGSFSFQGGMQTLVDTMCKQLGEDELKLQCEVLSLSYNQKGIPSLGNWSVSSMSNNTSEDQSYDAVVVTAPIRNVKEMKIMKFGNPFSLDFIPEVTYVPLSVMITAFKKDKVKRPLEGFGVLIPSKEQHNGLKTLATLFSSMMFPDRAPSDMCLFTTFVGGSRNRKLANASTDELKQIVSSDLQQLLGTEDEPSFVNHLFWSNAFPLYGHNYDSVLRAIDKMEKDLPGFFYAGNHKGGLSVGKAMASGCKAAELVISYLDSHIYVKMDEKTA

[6] = target: R128(X) ΔG210 double-mutant enzymes; format: biochemical, Amaranthus tuberculatus
[7] = read-out: IC50 (over R128(X) ΔG210 mutants)

Compound	IC50 [1] [µM]	IC50 [2] [µM]	IC50 [3] [µM]	IC50 [4] [µM]	IC50 [5] [µM]	IC50 ([6]; read-out: IC50 values) [µM]	IC50 ([6]; read-out: IC50 values (range over variants)) [µM]	IC50 [6, 7] [µM]	Resistance factor [4]
CCOC(=O)C(C)OC(=O)c1cc(Oc2ccc(C(F)(F)F)cc2Cl)ccc1[N+](=O)[O-] (centres unmarked) [Lactofen, lactofen]	> 10	> 10	> 10	2.15	1.58	> 10	0.1 to 1	–	–
CS(=O)(=O)NC(=O)c1cc(Oc2ccc(C(F)(F)F)cc2Cl)ccc1[N+](=O)[O-] [Fomesafen, fomesafen]	–	–	–	> 10	> 10	–	–	< 10	–
CC(C)N(C)S(=O)(=O)NC(=O)c1cc(-n2c(=O)cc(C(F)(F)F)n(C)c2=O)c(F)cc1Cl [Saflufenacil, saflufenacil]	> 10	> 10	> 10	> 10	0.627	–	–	< 10	–
C#CCN1C(=O)C(F)(F)Oc2cc(F)c(-n3c(=O)n(C)c(=S)n(C)c3=O)cc21 [Trifludimoxazin, trifludimoxazin]	0.0675	0.0399	0.0674	0.0311	0.00117	–	–	0.001 to 0.1	127
